Experimental data published in ChEMBL document CHEMBL1201862, “PubChem BioAssay data set” (2004).
Calls of active or inactive are those of the source.

Experiments:
[1] = test system: Streptococcus sp. 'group A'; assay: growth inhibition of control SK(-) GAS strain, dose response, counter-screen for streptokinase expression inhibitor project, luminescence, kanamycin, BacTiterGlo, confirmation (AID 1900); format: functional, organism-based
Streptococcus = assay: Group A Streptococcus viability loss, dose response, counter-screen for streptokinase expression inhibitor project, luminescence, BacTiterGlo (AID 1915); format: functional, organism-based;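 note: potency for reduction of bacterial viability or growth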
Streptokinase A = target: T1, Streptokinase A (Streptococcus pyogenes serotype M1, UniProt P10520); assay: S. pyogenes streptokinase expression inhibitors, potency, dose response, plasminogen activation absorbance, OD405 (AID 1914); format: functional, Streptococcus pyogenes M1 GAS;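 note: secreted streptokinase activity via plasminogen activation per viability signal from cell pellet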
T1 sequence (P10520 whole entry): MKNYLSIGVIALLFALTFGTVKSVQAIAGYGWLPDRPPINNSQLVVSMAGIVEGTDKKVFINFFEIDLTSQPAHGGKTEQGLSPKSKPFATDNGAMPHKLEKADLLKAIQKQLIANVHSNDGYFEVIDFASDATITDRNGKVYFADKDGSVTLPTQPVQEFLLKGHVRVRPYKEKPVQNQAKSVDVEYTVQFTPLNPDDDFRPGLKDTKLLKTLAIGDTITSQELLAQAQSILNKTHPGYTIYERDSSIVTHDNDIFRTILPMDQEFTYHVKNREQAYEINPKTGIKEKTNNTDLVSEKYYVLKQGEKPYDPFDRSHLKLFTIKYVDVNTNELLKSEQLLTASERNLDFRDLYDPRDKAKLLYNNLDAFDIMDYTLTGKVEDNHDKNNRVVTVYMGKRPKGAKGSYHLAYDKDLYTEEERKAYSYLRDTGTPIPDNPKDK

Cysteine protease ATG4B = Cysteine protease ATG4B (Homo sapiens, UniProt Q9Y4P1); format: functional;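 note: Fluorescence-based dose-response confirmation assay measuring inhibition of ATG4B activity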
Chain of Cysteine protease ATG4B (Q9Y4P1 whole entry): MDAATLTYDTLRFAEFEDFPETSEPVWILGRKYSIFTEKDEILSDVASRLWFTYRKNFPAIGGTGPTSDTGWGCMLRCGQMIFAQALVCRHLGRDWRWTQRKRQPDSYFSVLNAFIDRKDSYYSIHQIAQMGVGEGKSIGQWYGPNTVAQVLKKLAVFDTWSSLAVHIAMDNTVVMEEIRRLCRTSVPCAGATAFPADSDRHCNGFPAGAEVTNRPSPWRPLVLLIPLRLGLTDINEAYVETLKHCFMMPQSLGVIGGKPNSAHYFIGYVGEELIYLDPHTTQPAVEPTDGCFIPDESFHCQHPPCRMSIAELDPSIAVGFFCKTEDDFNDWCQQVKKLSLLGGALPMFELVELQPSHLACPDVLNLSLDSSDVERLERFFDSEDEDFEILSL

Phospholipase A2 = Phospholipase A2 (Homo sapiens, UniProt P04054); format: functional;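 note: confirmatory dose-response counterscreen on phospholipase A2, testing hits that came from an ultra-high-throughput screen for ATG4B inhibitors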
Chain of Phospholipase A2 (P04054 whole entry): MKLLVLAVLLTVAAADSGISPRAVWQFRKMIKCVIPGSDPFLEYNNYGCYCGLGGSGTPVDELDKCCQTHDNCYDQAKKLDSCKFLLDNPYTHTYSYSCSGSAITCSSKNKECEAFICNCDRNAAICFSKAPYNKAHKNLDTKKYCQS

[2] = target: T2, DNA repair protein RAD52 homolog (Homo sapiens, UniProt P43351); format: functional, biochemical
T2 sequence (P43351 whole entry): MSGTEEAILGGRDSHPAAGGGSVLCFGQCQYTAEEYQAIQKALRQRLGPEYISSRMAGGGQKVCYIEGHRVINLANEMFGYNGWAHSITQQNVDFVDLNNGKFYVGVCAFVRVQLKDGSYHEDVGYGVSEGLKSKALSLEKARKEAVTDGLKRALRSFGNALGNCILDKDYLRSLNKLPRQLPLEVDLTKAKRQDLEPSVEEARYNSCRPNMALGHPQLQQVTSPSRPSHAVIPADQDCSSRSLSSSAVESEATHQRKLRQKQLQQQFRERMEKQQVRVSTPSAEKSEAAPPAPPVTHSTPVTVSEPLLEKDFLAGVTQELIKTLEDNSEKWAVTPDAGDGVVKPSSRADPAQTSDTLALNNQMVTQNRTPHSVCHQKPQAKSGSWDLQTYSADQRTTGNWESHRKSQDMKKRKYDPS

[3] = target: Latent membrane protein 1 (Human herpesvirus 4 (strain B95-8), UniProt P03230); assay: TES1-eGFP NF-kB reporter inhibition versus Tet-On dsRED, dose response, selectivity assay for LMP1 NF-kB inhibitor project, imaging, HEK293T, dual-color eGFP/dsRED, cherry-picks (AID 588398); format: functional, cell-based
Chain of Latent membrane protein 1 (P03230 whole entry): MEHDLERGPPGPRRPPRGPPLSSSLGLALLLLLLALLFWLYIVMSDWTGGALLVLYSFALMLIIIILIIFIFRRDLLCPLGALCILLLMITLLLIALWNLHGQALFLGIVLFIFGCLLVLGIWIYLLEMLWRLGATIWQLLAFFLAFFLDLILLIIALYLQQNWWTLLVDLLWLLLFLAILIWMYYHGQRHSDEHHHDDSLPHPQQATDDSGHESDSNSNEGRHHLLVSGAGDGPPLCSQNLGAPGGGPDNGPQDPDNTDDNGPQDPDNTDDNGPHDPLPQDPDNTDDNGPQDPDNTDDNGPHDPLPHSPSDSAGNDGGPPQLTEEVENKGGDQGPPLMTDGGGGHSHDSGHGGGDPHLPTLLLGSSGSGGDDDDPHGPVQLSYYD

[4] = target: Botulinum neurotoxin type A (Clostridium botulinum (strain Hall / ATCC 3502 / NCTC 13319 / Type A), UniProt P0DPI1); assay: High-throughput multiplex microsphere dose response for inhibitors of toxin protease, specifically Botulinum neurotoxin light chain A protease, compounds from Cherry Pick 01.; format: functional; details: read-out: EC50_MICROM
Chain of Botulinum neurotoxin type A (P0DPI1 2-448 limits assumed): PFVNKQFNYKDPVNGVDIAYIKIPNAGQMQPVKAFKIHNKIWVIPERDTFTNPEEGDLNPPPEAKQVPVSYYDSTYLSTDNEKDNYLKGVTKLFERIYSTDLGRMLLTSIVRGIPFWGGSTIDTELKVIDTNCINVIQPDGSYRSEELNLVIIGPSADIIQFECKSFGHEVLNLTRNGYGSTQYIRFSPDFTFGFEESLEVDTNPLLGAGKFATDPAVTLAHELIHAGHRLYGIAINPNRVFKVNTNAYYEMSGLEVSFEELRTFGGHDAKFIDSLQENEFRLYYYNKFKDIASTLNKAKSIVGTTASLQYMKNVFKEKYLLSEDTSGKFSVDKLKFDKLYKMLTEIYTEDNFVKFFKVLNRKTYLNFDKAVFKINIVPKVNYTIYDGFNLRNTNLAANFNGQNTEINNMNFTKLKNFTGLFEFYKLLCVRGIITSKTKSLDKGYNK

CC(C)c1ccccc1OCC(=O)NC1CCCc2ccccc21 (stereo not drawn)
EC50 [1]: 16.3 µM (active)
EC50 (Streptococcus): > 150 µM (not active)
EC50 (Streptokinase A): 18.5 µM (active)
IC50 (Cysteine protease ATG4B): 12.2 µM (active)
IC50 (Phospholipase A2): 9.38 µM (active)

CC1(C)N=C(N)N=C(N)N1c1ccc(CCCCc2ccccc2)cc1
AC50 [2]: 11.2 µM (active)
AC50 [3]: 28.9 µM (active)

CSc1nnc2c(n1)c(C)nn2-c1cccc(C)c1
EC50 [4]: 6.4 µM (active)
